Data on six molecules can be found in patent US10314870B2, “Tropism modified cancer terminator virus (Ad.5/3 CTV;AD.5/3-CTV-M7)” (priority 2012, dated 2019).

The test system of data set [1] is primary human GBM cells (GBM6, GBM12). Put plainly: Cell death by trypan blue exclusion in primary human GBM cells. The class given is cell-based. The source says:
The pooled cell pellets were resuspended and mixed with trypan blue dye.

Data set [2] has as its system PDAC cell lines. The experiment in a line: MTT cell viability assay in pancreatic cancer cell lines. It is filed as cell-based, human. Conditions: 200 μM. As for the experimental part: FIGS. 13A-D. Cancer-specific oncolytic effects of CTV-M7 in pancreatic cancer cells. Pancreatic cancer cells were treated with non-replicating Ad.5-mda-7 or Ad.5/3-mda-7 as well as conditional replication-competent Ads (CRCA) i.e., Ad.5-CTV-M7 and Ad.5/3-CTV-M7 and MTT assays were performed after 3 days. IC50 was calculated using GraphPad Prism 5.0. Points; mean±S.E. of three different experiments each performed in quadruplicate.
Pancreatic cancer cell lines were infected with Ad in incomplete medium for 3 h followed by treatment with Perillyl alcohol (POH) (200 μM) in complete medium (10% FBS) for 72 h, and cell proliferation assays were performed at O.D. 560 nm using cell proliferation assays after adding 100 μl of 3-(4,5-dimethylthiazol-2-yl)-2,5-diphenyltetrazolium bromide (Sigma Aldrich) (MTT) dye (1 mg/ml) (Sigma-Aldrich).
For orientation: Tetrazolium dyes change colour on reduction, which living cells bring about.

In data set [3] the test system is MIA PaCa-2 and BxPC-3 cells. Put plainly: ROS formation, carboxy-H2DCFDA fluorescence. Conditions: 200 μM. It is filed as cell-based, human. As for the experimental part:
FIG. 14. Temporal kinetics of reactive oxygen species (ROS) formation induced by POH. MIA PaCa-2 and BxPC-3 cells were stained with carboxy-H2DCF-DA in PBS for 30 min followed by treatment of POH, and fluorescence was measured using a Flurometer with a green filter at the indicated time points. The readings noted were the difference between POH-treated group compared to untreated control.
To determine ROS production, cells were stained with 100 μl of 10 μM carboxy-H2DCFDA (Molecular Probes™, Invitrogen) in PBS for 30 min followed by treatment with Perillyl alcohol and fluorescence was measured with a Fluorometer using a green filter at the indicated time points.

Data set [4] concerns MIA PaCa-2/luc xenografts. The experiment in a line: MIA PaCa-2/luc xenografts on both flanks, Ad/MB by tail vein with UTMD on left tumor. It is filed as in vivo, nude mice. To be noted: POH 75 mg/kg i.p. daily; Ad.5-vec+POH compared to Ad.5/3-vec. As for the experimental part:
FIG. 11A-E. Ad.5/3-CTV-M7 in combination with POH completely eradicates primary and distant tumors in nude mice bearing human pancreatic tumor xenografts. Tumor xenografts generated from MIA-PaCa-2 cells stably expressing a luciferase gene (MIA PaCa-2-luc) were established in both the left and right flanks of nude mice. Tumors on the left flank were sonoporated for 10 min following tail-vein injection of the indicated complement treated Ad/MB complex, and treated as described in Materials and Methods section for 3 weeks starting from day 14 (1 injection/week). POH was administered i.p. daily for 4 weeks from day 1 of implantation of cells in nude mice. (A) Bioluminescence imaging (BLI) was performed using Xenogen In Vivo Imaging System (IVIS). BLI was performed every week and luminescence was quantified and tumor growth response curve of the left flank (B) and right flank or distant tumor (C) was plotted. (D) Secreted MDA-7/IL-24 in blood serum was measured using an MDA-7/IL-24 ELISA kit. (E) There was significant increase in ‘bystander’ effect of MDA-7/IL-24 in inhibiting in vivo tumor growth as measured by BLI. […]
Athymic nude mice were injected s.c. in both flanks with 5×10^6 MIA PaCa-2/luc (a stable clone of MIA PaCa-2 cells containing integrated pGL-3/luc). […] Images were analyzed by Living Image software. […]

The conditions of data set [5]: cited from earlier work.
The test system of data set [6] is GBM6 cells. Put plainly: Colony formation assay with Calcusyn analysis. To be noted: GBM cells. The class given is cell-based, human. As for the experimental part: GBM6 cells were plated as single cells (500-2,500 per 60-mm dish, in sextuplicate). […] Forty-eight h later cells were washed free of drugs and colonies were permitted to form for 20 days. (n=3, +/−SEM). Using the Calcusyn for Windows program we calculated the fraction affected (Fa) and the Combination Index (CI). A CI value of less than 1.00 indicates a synergy of interaction.

Data set [7] concerns GBM6 cells. Put plainly: Autophagy, LC3-GFP vesicle formation. It is filed as cell-based, human. As for the experimental part:
FIG. 19A-D. Induction of ER stress and autophagy plays a role in the interaction between MDA-7/IL-24 and HDACIs. Panel A. GBM6 cells were transfected in quadruplicate with a plasmid to express an LC3 (ATG8)-GFP fusion protein and in parallel transfected with scrambled siRNA (siSCR) or an siRNA to knock down Beclin/expression. Twenty-four h after transfection cells were treated with GST or GST-MDA-7 (20 nM) and/or SBHA (3 μM). Cells (a representative of 40 per well per time point) were examined 6 h, 12 h and 24 h after treatment using an Axiovert microscope (x40) for the formation of punctate vesicles containing LC3-GFP. Data are plotted as the number of LC3-GFP vesicles per cell (n=-2, +/− SEM) (*p<0.05 greater than GST+VEH; **p<0.05 greater than GST-MDA-7+VEH). Panel B. GBM6 cells were transfected with scrambled siRNA (siSCR) or an siRNA to knock down Beclinl expression. Twenty-four h after transfection cells were treated with GST or GST-MDA-7 (20 nM) and/or SBHA (3 μM). Cells were isolated 48 h later and viability determined by trypan blue exclusion (n=3, +/− SEM) (#p<0.05 less than corresponding value in siSCR cells). Panel C. GBM6 cells were transfected with an empty vector control plasmid or a plasmid to express dominant negative PERK. […] Cells were isolated 6 h after exposure and the phosphorylation of PERK and eIF2α determined (representative n=2). […]

For `CCOC(=O)C1=C(N)Oc2ccc(Br)cc2C1C(C#N)C(=O)OCC` (centres unmarked) [HA14-1], the “effect on lethality of Ad.5-mda-7” value in data set [1] (GBM6, Ad.5-mda-7 moi 10, obatoclax 0-200 nM or HA14-1 0-10 μM, 24 h) is listed as “enhanced the lethality of Ad.5-mda-7”.
In the case of `C=C(C)[C@@H]1CC=C(CO)CC1` [POH, perillyl alcohol], the “lethality and proliferation of PDAC cell lines” value in data set [2] is “not lethal and does not affect proliferation”. Further, in data set [3] (24 h), the “ROS levels at 24 h” value is reported as “baseline levels”. For the same molecule, the “time of maximum ROS levels” value in data set [3] (time course) amounted to 6 h. The ROS induction entry in data set [3] (wild type and mutant K-ras pancreatic cell lines) is reported as “sufficient to induce significant amounts of ROS”. Also, the “effect of the POH dose with empty vector on tumor growth” value in data set [4] was “non-toxic but therapeutically inactive”. Besides, the side effects result in data set [5] (POH 800-1600 mg/m^2/dose) is given as “minimal side effects”. Further, the “stability and detection in plasma” value in data set [5] (plasma) was “very unstable and cannot be detected in plasma”.
With `C=C(C)[C@@H]1CC=C(C(=O)O)CC1` [Perillic acid], the “plasma concentration associated with minimal toxicities” value in data set [5] (plasma) was 500 µM.
On to `O=C(CCCCCCC(=O)NO)NO` [SBHA, Suberohydroxamic acid], for which the “effect on lethality of MDA-7/IL-24” value in data set [1] (GBM6, GBM12 infected with Ad.5-mda-7 moi 10, Na Valproate 0.3-1.0 mM, SBHA 0.3-5.0 μM, 48 h, dose-dependent) was “enhanced the lethality of MDA-7/IL-24”. Besides, the “interaction with MDA-7/IL-24 protein in colony formation” value in data set [6] is on record as “synergized”. In addition, the “effect on MDA-7/IL-24 stimulated autophagy levels” value in data set [7] (SBHA 3 μM with GST-MDA-7 20 nM) is reported as “enhanced MDA-7/IL-24 stimulated autophagy levels”.
`CCCC(CCC)C(=O)[O-].[Na+]` [sodium valproate]: the “interaction with MDA-7/IL-24 protein in colony formation” value in data set [6] is recorded as “synergized”.

B1: GST-MDA-7: bacterially synthesized GST-MDA-7 protein (protein)
chain: QEFHFGPCQVKGVVPQKLWEAFWAVKDTMQAQDNITSARLLQQEVLQNVSDAESCYLVHTLLEFYLKTVFKNYHNRTVEVRTLKSFSTLANNFVLIVSQLQPSQENEMFSIRDSAHRRFLLFRRAFKQLDVEAALTKALGEVDILLTWMQKFYKL
B1: the “autophagy (LC3-GFP vesicle) levels” value in data set [7] (GST-MDA-7 20 nM, 6 h, 12 h, 24 h, time-dependent) was “increased autophagy”.
